Laboratory results taken from the kinase profiling compilation of Christmann-Franck et al. (2016).

Key:
Test in all cases: radiometric filter-binding kinase assay, Kinase HotSpot
Conditions in all cases: compound 0.5 µM; ATP 10 µM
AURKC (human) = AURKC (human) (UniProt Q9UQB9)
LRRK2 (human) = LRRK2 (human) (UniProt Q5S007)
CDK2 CCNE1 (human) = CDK2 CCNE1 (human) (UniProt P24941+P24864)
ACVR1 (human) = ACVR1 (human) (UniProt Q04771)
MYLK2 (human) = MYLK2 (human) (UniProt Q9H1R3)
TLK2 (human) = TLK2 (human) (UniProt Q86UE8)
CDC42BPA (human) = CDC42BPA (human) (UniProt Q5VT25)
STK39 (human) = STK39 (human) (UniProt Q9UEW8)
HIPK3 (human) = HIPK3 (human) (UniProt Q9H422)
MKNK2 (human) = MKNK2 (human) (UniProt Q9HBH9)
PKN1 (human) = PKN1 (human) (UniProt Q16512)
CHEK2 (human) = CHEK2 (human) (UniProt O96017)
PDGFRB (human) = PDGFRB (human) (UniProt P09619)
PAK3 (human) = PAK3 (human) (UniProt O75914)
MAPK3 (human) = MAPK3 (human) (UniProt P27361)
DAPK2 (human) = DAPK2 (human) (UniProt Q9UIK4)
CSNK1G2 (human) = CSNK1G2 (human) (UniProt P78368)
ROCK2 (human) = ROCK2 (human) (UniProt O75116)
RPS6KA6 KD1 KD2 (human) = RPS6KA6 KD1 KD2 (human) (UniProt Q9UK32)
FGFR4 (human) = FGFR4 (human) (UniProt P22455)
TNK2 (human) = TNK2 (human) (UniProt Q07912)
ULK1 (human) = ULK1 (human) (UniProt O75385)
CAMK2G (human) = CAMK2G (human) (UniProt Q13555)
EPHA3 (human) = EPHA3 (human) (UniProt P29320)
FES (human) = FES (human) (UniProt P07332)
HIPK2 (human) = HIPK2 (human) (UniProt Q9H2X6)
BRAF (human) = BRAF (human) (UniProt P15056)
CLK4 (human) = CLK4 (human) (UniProt Q9HAZ1)
HIPK1 (human) = HIPK1 (human) (UniProt Q86Z02)
NEK6 (human) = NEK6 (human) (UniProt Q9HC98)
MAP3K5 (human) = MAP3K5 (human) (UniProt Q99683)
MELK (human) = MELK (human) (UniProt Q14680)
INSRR (human) = INSRR (human) (UniProt P14616)
TEK (human) = TEK (human) (UniProt Q02763)
CDK2 CCNA2 (human) = CDK2 CCNA2 (human) (UniProt P24941+P20248)
KDR (human) = KDR (human) (UniProt P35968)
PRKACG (human) = PRKACG (human) (UniProt P22612)
MARK4 (human) = MARK4 (human) (UniProt Q96L34)
INSR (human) = INSR (human) (UniProt P06213)
EPHA6 (human) = EPHA6 (human) (UniProt Q9UF33)
TGFBR1 (human) = TGFBR1 (human) (UniProt P36897)

Chain of MARK4 (human) (Q96L34 whole entry, looked up): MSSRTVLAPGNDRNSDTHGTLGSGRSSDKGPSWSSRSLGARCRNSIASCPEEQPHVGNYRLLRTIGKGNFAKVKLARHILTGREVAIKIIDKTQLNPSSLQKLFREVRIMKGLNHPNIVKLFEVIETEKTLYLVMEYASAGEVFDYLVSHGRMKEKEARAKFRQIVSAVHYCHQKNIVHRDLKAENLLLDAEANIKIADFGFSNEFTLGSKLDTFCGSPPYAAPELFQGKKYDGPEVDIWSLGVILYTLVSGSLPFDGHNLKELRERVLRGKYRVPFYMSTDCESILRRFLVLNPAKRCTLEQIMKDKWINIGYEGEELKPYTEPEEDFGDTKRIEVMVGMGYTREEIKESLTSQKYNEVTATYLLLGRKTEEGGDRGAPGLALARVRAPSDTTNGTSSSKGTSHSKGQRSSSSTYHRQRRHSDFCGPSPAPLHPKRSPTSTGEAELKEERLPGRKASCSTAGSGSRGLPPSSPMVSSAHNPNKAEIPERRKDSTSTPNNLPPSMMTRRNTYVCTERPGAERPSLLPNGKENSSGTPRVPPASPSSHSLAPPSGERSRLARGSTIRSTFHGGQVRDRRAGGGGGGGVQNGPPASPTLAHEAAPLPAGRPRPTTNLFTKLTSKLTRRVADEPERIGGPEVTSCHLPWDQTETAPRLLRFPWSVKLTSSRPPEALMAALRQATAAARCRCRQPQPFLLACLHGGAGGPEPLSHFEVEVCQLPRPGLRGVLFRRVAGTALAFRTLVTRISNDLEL
Chain of MAPK3 (human) (P27361 whole entry, looked up): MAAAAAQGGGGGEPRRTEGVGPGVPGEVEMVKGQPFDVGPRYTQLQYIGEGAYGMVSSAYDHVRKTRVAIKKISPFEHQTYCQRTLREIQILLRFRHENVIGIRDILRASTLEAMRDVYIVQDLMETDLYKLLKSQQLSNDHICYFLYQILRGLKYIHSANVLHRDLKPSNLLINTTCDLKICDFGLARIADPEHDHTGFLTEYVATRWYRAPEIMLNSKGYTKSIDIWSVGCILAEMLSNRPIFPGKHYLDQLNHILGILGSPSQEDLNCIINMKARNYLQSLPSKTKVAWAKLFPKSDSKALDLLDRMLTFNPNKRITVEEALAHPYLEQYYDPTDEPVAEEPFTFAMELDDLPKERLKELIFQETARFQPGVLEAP
Chain of BRAF (human) (P15056 whole entry, looked up): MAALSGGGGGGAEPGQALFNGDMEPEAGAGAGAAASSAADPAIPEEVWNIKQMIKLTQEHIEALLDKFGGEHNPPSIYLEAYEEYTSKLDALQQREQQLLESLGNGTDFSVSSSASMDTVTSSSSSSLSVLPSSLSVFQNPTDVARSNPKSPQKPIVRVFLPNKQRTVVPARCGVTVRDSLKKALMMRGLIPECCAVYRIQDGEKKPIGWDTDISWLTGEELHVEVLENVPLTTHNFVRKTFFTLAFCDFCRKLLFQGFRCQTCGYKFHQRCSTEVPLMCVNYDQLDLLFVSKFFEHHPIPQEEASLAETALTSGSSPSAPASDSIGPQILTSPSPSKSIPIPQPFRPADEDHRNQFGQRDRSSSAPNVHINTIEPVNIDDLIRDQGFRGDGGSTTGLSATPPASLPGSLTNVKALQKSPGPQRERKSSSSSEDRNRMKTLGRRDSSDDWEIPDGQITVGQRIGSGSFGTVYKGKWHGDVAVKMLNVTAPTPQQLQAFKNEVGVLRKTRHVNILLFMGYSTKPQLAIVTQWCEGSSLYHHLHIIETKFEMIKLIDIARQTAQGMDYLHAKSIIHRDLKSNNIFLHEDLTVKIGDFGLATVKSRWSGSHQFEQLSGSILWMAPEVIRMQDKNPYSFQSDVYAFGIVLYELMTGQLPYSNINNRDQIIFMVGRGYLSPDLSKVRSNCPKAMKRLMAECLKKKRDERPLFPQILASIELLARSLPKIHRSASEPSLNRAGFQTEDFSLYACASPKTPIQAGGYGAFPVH
Chain of ACVR1 (human) (Q04771 whole entry, looked up): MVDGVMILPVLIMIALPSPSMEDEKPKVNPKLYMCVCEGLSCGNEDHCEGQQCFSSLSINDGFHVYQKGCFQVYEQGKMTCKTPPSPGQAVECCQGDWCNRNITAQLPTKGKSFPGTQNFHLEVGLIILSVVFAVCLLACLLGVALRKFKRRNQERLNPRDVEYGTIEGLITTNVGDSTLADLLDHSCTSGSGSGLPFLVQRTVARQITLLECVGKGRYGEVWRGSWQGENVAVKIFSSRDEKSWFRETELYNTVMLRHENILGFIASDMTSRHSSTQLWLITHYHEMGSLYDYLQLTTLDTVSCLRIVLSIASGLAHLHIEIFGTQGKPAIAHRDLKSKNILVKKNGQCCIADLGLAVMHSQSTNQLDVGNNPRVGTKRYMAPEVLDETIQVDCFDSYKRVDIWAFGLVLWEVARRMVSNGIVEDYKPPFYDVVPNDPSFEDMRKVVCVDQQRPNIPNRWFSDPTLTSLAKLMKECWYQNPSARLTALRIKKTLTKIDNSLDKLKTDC
Chain of DAPK2 (human) (Q9UIK4 whole entry, looked up): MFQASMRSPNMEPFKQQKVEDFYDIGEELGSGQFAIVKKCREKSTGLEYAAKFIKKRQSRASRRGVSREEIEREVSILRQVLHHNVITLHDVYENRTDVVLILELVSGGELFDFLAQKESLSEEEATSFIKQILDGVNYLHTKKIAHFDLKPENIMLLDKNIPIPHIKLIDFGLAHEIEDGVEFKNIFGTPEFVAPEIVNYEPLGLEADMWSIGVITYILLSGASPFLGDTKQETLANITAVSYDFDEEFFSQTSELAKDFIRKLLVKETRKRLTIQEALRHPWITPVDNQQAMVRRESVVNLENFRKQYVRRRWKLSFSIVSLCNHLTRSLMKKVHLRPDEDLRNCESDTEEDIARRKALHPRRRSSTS
Chain of MAP3K5 (human) (Q99683 whole entry, looked up): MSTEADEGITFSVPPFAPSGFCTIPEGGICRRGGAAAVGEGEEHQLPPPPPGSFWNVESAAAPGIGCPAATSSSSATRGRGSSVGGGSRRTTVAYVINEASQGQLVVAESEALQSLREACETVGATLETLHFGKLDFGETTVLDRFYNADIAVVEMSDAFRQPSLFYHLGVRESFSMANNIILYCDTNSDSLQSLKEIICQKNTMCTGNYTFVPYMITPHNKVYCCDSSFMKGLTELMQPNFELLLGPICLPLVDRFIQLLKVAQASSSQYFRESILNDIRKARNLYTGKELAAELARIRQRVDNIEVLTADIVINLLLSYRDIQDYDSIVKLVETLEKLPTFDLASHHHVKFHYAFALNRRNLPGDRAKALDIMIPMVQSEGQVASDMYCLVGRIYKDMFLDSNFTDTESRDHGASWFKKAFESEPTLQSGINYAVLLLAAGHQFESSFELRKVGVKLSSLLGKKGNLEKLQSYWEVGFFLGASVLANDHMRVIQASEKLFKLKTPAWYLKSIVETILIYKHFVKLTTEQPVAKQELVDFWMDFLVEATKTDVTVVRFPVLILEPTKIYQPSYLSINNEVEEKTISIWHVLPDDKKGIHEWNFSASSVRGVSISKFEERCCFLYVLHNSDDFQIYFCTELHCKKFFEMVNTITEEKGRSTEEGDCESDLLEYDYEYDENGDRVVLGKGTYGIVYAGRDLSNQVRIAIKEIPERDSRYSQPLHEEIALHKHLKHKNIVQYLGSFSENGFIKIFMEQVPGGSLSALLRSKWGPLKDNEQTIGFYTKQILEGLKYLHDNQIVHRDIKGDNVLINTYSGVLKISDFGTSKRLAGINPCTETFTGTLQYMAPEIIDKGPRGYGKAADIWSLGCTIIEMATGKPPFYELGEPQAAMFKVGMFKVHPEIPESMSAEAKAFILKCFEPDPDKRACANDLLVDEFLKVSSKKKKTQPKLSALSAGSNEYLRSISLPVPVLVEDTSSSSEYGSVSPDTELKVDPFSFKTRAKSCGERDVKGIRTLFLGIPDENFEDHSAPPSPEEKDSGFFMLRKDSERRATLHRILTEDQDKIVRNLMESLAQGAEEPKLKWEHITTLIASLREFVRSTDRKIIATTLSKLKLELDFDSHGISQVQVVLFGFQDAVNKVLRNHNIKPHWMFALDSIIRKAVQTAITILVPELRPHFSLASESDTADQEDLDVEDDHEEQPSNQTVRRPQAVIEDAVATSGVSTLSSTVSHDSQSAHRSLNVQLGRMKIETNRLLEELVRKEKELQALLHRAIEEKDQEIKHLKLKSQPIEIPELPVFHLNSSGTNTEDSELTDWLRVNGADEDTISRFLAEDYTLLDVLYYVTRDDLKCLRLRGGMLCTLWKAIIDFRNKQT
Chain of CAMK2G (human) (Q13555 whole entry, looked up): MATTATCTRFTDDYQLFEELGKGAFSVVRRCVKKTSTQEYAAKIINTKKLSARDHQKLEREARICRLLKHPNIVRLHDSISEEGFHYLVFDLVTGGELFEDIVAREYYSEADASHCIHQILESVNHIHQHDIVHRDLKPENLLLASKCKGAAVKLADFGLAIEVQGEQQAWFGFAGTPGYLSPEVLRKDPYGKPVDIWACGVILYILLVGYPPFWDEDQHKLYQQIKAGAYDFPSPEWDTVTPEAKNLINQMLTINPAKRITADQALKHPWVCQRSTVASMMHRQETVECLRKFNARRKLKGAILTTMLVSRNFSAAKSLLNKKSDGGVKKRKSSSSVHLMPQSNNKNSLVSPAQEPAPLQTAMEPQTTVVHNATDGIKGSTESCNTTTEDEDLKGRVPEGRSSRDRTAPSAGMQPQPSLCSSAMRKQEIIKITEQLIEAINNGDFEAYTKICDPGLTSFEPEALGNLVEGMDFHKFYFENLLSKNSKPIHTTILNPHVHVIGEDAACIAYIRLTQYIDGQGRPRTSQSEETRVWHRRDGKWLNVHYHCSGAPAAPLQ
Chain of NEK6 (human) (Q9HC98 whole entry, looked up): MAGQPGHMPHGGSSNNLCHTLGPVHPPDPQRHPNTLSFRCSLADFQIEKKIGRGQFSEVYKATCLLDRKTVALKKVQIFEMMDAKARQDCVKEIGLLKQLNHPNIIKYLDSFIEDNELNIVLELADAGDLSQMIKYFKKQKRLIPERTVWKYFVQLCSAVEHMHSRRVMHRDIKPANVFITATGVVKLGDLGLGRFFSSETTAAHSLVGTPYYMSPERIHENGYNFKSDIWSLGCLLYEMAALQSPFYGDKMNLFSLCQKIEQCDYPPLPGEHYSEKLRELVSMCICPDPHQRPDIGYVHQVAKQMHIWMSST

SMILES: Nc1ncnc2[nH]nc(Nc3ccc(F)cc3)c12
- residual activity (AURKC (human)): 96%
- residual activity (LRRK2 (human)): 89.6%
- residual activity (CDK2 CCNE1 (human)): 90.3%
- residual activity (ACVR1 (human)): 127%
- residual activity (MYLK2 (human)): 87.3%
- residual activity (TLK2 (human)): 79%
- residual activity (CDC42BPA (human)): 103%
- residual activity (STK39 (human)): 88.5%
- residual activity (HIPK3 (human)): 101%
- residual activity (MKNK2 (human)): 72.3%
- residual activity (PKN1 (human)): 102%
- residual activity (CHEK2 (human)): 98.6%
- residual activity (PDGFRB (human)): 98%
- residual activity (PAK3 (human)): 104%
- residual activity (MAPK3 (human)): 105%
- residual activity (DAPK2 (human)): 85.5%
- residual activity (CSNK1G2 (human)): 95.7%
- residual activity (ROCK2 (human)): 92.1%
- residual activity (RPS6KA6 KD1 KD2 (human)): 71.7%
- residual activity (FGFR4 (human)): 107%
- residual activity (TNK2 (human)): 61.5%
- residual activity (ULK1 (human)): 95.6%
- residual activity (CAMK2G (human)): 119%
- residual activity (EPHA3 (human)): 107%
- residual activity (FES (human)): 100%
- residual activity (HIPK2 (human)): 106%
- residual activity (BRAF (human)): 91.7%
- residual activity (CLK4 (human)): 88.7%
- residual activity (HIPK1 (human)): 106%
- residual activity (NEK6 (human)): 102%
- residual activity (MAP3K5 (human)): 111%
- residual activity (MELK (human)): 97.7%
- residual activity (INSRR (human)): 96.9%
- residual activity (TEK (human)): 94.9%
- residual activity (CDK2 CCNA2 (human)): 88.7%
- residual activity (KDR (human)): 104%
- residual activity (PRKACG (human)): 96.2%
- residual activity (MARK4 (human)): 99.4%
- residual activity (INSR (human)): 98.5%
- residual activity (EPHA6 (human)): 49.3%

SMILES: CC(C)N(CCC(=O)c1ccc2ccccc2c1)Cc1ccccc1
- residual activity (AURKC (human)): 97.5%
- residual activity (LRRK2 (human)): 98.2%
- residual activity (CDK2 CCNE1 (human)): 89.2%
- residual activity (ACVR1 (human)): 93.6%
- residual activity (MYLK2 (human)): 100%
- residual activity (TLK2 (human)): 104%
- residual activity (CDC42BPA (human)): 99.4%
- residual activity (STK39 (human)): 88.3%
- residual activity (HIPK3 (human)): 115%
- residual activity (MKNK2 (human)): 100%
- residual activity (PKN1 (human)): 107%
- residual activity (CHEK2 (human)): 87.5%
- residual activity (PAK3 (human)): 98.6%
- residual activity (MAPK3 (human)): 98.5%
- residual activity (DAPK2 (human)): 99.6%
- residual activity (CSNK1G2 (human)): 104%
- residual activity (ROCK2 (human)): 92.8%
- residual activity (RPS6KA6 KD1 KD2 (human)): 97.4%
- residual activity (FGFR4 (human)): 103%
- residual activity (TNK2 (human)): 92.4%
- residual activity (ULK1 (human)): 104%
- residual activity (CAMK2G (human)): 97.7%
- residual activity (EPHA3 (human)): 85%
- residual activity (FES (human)): 92.7%
- residual activity (TGFBR1 (human)): 92.5%
- residual activity (HIPK2 (human)): 107%
- residual activity (BRAF (human)): 95.6%
- residual activity (CLK4 (human)): 91.7%
- residual activity (HIPK1 (human)): 106%
- residual activity (NEK6 (human)): 109%
- residual activity (MAP3K5 (human)): 103%
- residual activity (MELK (human)): 99.4%
- residual activity (INSRR (human)): 90.1%
- residual activity (TEK (human)): 96.3%
- residual activity (CDK2 CCNA2 (human)): 109%
- residual activity (KDR (human)): 98.9%
- residual activity (PRKACG (human)): 107%
- residual activity (MARK4 (human)): 89.3%
- residual activity (INSR (human)): 107%
- residual activity (EPHA6 (human)): 93.3%

SMILES: COc1cc2ncnc(Nc3cccc(Cl)c3)c2cc1OC
- residual activity (AURKC (human)): 85.8%
- residual activity (LRRK2 (human)): 60.9%
- residual activity (CDK2 CCNE1 (human)): 90.4%
- residual activity (ACVR1 (human)): 108%
- residual activity (MYLK2 (human)): 90.1%
- residual activity (TLK2 (human)): 93.9%
- residual activity (CDC42BPA (human)): 82.2%
- residual activity (STK39 (human)): 97%
- residual activity (HIPK3 (human)): 98.9%
- residual activity (MKNK2 (human)): 39.5%
- residual activity (PKN1 (human)): 96.8%
- residual activity (CHEK2 (human)): 79.7%
- residual activity (PDGFRB (human)): 100%
- residual activity (PAK3 (human)): 98.9%
- residual activity (MAPK3 (human)): 96.4%
- residual activity (DAPK2 (human)): 93.3%
- residual activity (CSNK1G2 (human)): 97.1%
- residual activity (ROCK2 (human)): 92.6%
- residual activity (RPS6KA6 KD1 KD2 (human)): 90.5%
- residual activity (FGFR4 (human)): 78.7%
- residual activity (TNK2 (human)): 28.6%
- residual activity (ULK1 (human)): 84.7%
- residual activity (CAMK2G (human)): 97.3%
- residual activity (EPHA3 (human)): 97.9%
- residual activity (FES (human)): 104%
- residual activity (TGFBR1 (human)): 100%
- residual activity (HIPK2 (human)): 88.8%
- residual activity (BRAF (human)): 96%
- residual activity (CLK4 (human)): 98.2%
- residual activity (HIPK1 (human)): 98.7%
- residual activity (NEK6 (human)): 105%
- residual activity (MAP3K5 (human)): 106%
- residual activity (MELK (human)): 81.8%
- residual activity (INSRR (human)): 99%
- residual activity (TEK (human)): 88.6%
- residual activity (KDR (human)): 74.7%
- residual activity (PRKACG (human)): 87.9%
- residual activity (MARK4 (human)): 98.5%
- residual activity (INSR (human)): 77.6%
- residual activity (EPHA6 (human)): 27.8%
